Like-named read-outs stand apart in the source and are kept apart here. No end group written: not given here.
How the values were obtained:
[1] = cited from earlier work
[2] = 50 mg/kg twice daily i.p.; cited from earlier work
[3] = cited from earlier work; remark: listed apart in the source
p38 MAPK = assay: FPR-signaling assay: p38 MAPK phosphorylation in FPR-expressing cells stimulated with fMLP; type: cell-based
Source text: (§1) Both AQGV (SEQ ID NO:11) peptide effects on p38 and PKB-mediated signalling last for the full 600 seconds tested whereas the other kinases tested were not affected throughout. […] The pathway is governing the balance between proteolysis and proteogenesis regulating cytoskeleton changes affecting vascular permeability. It is shown that an autophagy-inhibiting peptide reduces p38 MAPK kinase activated changes as well as reduces PI3K/AKT/mTOR activated induced changes in cell cytoskeleton reorganization affecting endothelial cell contraction and adverse vascular permeability. Autophagy-inhibiting peptide is useful and capable of addressing adverse vascular permeability, such as manifested by edema with vascular leakage, adverse leukocyte extravasation and hypotension, tissue injury and immune responses in human subjects.

[4] = system: STAT3, JNK and P42/p44MAPK/ERK1,2 kinases; assay: FPR-signaling assay: STAT3, JNK and P42/p44MAPK/ERK1,2 phosphorylation in FPR-expressing cells; type: cell-based
Source text: as §1

PKB (also known as AKT) = assay: FPR-signaling assay: PKB (AKT) phosphorylation in FPR-expressing cells stimulated with fMLP; type: cell-based
Source text: The pathway is governing the balance between proteolysis and proteogenesis regulating cytoskeleton changes affecting vascular permeability.

mTOR kinases = settings: cited from earlier work; for activators of mTOR or inhibitors of autophagy, compared with other amino acids: alone or in combination, literature search November 2011
autophagy = settings: cited from earlier work; for inhibitory effects on autophagy: human cells (Meijer et al. 2015)
CXCR4 = molecular target: T1, CXCR4 (Homo sapiens, UniProt P61073); settings: cited from earlier work; for agonist behaviour in chemotaxis: CCRF-CEM cell line
T1 construct: In chemotaxis assays using the acute lymphoblastic leukemia cell line CCRF-CEM; endogenous in cells; host or cells: CCRF-CEM
T1 sequence (P61073 whole entry): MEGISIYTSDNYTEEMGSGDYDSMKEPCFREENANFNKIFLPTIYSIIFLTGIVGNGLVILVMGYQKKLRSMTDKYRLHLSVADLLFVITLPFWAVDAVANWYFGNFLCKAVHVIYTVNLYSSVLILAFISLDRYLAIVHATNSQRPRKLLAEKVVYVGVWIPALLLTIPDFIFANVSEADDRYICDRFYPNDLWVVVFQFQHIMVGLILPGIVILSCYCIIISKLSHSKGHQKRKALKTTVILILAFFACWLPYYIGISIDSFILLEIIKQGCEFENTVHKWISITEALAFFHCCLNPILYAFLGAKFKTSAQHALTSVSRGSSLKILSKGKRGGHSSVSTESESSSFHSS

guinea pig skin = settings: internal standard […]; cited from earlier work
neutrophil = settings: cited from earlier work
[5] = cited from earlier work; remark: listed apart in the source
[6] = Distribution and elimination of intravenously injected [14C]-AQGV from mice; type: in vivo
Description: The present study, which was conducted by TNO Biosciences, Utrechtseweg, Netherlands, was designed to provide data on the distribution and metabolism of [14C]-AQGV (SEQ ID NO:11) (Ala-Gln-[1-^14C]Gly-Val) in male CD-1 mice following a single intravenous dose of 50 mg/kg. To this end, mice were sacrificed at 10, 30 and 60 minutes, and 6 and 24 hours after administration of radiolabeled AQGV (SEQ ID NO:11), counts in various tissues were determined, and the radioactivity present in the urine and plasma were analyzed by HPLC.

AQGV (tetrapeptide)
endotoxin induced increase in plasma levels of cytokines and adhesion molecule VCAM-1 ([1]; 180 mg/kg (the highest dose)): significant attenuation
fever and flu-like symptoms ([1]; the highest dose): reduced
renal function and allograft survival [2]: improved
survival ([3]; 20-50 mg/kg twice daily i.p. for four days, started 24 hours after IRI, dose dependent): markedly improved
CTGF up-regulation, marker of post-ischemic fibrosis ([3]; four weeks after IRI, renal tissue): significantly less
tubular epithelial cell proliferation ([3]; mouse, in vivo): significantly enhanced
acute tubular injury ([3]; two days after IRI): diminished
effect on p38/p38-MK2-HSP27 and/or PI3K/AKT/mTOR pathways (p38 MAPK; formyl-peptide related signaling): attenuate
duration of peptide effects on p38-mediated signalling (p38 MAPK; full period tested): 600 s
time at which peptide effects on p38 MAPK are detected after FPR-stimulation (p38 MAPK; peptide at 20 ng/ml or 50 ng/ml, fMLP stimulation): 30 s
peptide effect on the other kinases tested ([4]; throughout 600 seconds): not affected
time at which peptide effects on PKB(AKT) follow after FPR-stimulation (PKB (also known as AKT); bi-phasic pattern, peptide at 20 ng/ml or 50 ng/ml, fMLP stimulation): 300 s
duration of peptide effects on PKB-mediated signalling (PKB (also known as AKT); full period tested): 600 s

N[C@@H](Cc1ccc(O)cc1)C(=O)O [tyrosine, L-Tyrosine]
activators of mTOR or inhibitors of autophagy, compared with other amino acids (mTOR kinases): no or opposite effects

NC(=O)CC[C@H](N)C(=O)O [L-Glutamine]
activators of mTOR or inhibitors of autophagy, compared with other amino acids (mTOR kinases): more potent
Literature-based activity: mTOR kinases (mTOR kinases): activate
Literature-based activity: autophagy (autophagy): DOWN
inhibitory effects on autophagy (autophagy): most prominent

CSCC[C@H](N)C(=O)O [L-Methionine]
activators of mTOR or inhibitors of autophagy, compared with other amino acids (mTOR kinases): no or opposite effects
Literature-based activity: mTOR kinases (mTOR kinases): partial inhibit

N=C(N)NCCC[C@H](N)C(=O)O [L-Arginine]
activators of mTOR or inhibitors of autophagy, compared with other amino acids (mTOR kinases): more potent
Literature-based activity: mTOR kinases (mTOR kinases): activate
Literature-based activity: autophagy (autophagy): DOWN

ASLW (CXCR4 superagonist) [peptide agonist of CXCR4]
agonist behaviour in chemotaxis (CXCR4): superagonist
sensitivity to the CXCR4 antagonist AMD3100 (CXCR4): insensitive

NCC(=O)O [L-Glycine]
activators of mTOR or inhibitors of autophagy, compared with other amino acids (mTOR kinases): more potent
Literature-based activity: autophagy (autophagy): DOWN

N[C@@H](Cc1c[nH]cn1)C(=O)O [L-Histidine]
Literature-based activity: mTOR kinases (mTOR kinases): down

CC(C)[C@H](N)C(=O)O [L-Valine]
activators of mTOR or inhibitors of autophagy, compared with other amino acids (mTOR kinases): more potent
Literature-based activity: mTOR kinases (mTOR kinases): activate

acyl-YSFKPMPLaR (YSFKPMPLXR; N-acetyl; D-Ala; chemoattractant motif; MOD_RES (1)..(1) …ON; VARIANT (9)..(9) is D-ala) [conformationally constrained decapeptide agonist analog of C5a65-74]
potency relative to unconstrained analog […] (guinea pig skin): at least 10 fold

NCCCC[C@H](N)C(=O)O [L-Lysine]
activators of mTOR or inhibitors of autophagy, compared with other amino acids (mTOR kinases): no or opposite effects
Literature-based activity: mTOR kinases (mTOR kinases): down

C[C@H](N)C(=O)O [L-Alanine]
activators of mTOR or inhibitors of autophagy, compared with other amino acids (mTOR kinases): more potent
Literature-based activity: autophagy (autophagy): DOWN
inhibitory effects on autophagy (autophagy): most prominent

CC[C@H](C)[C@H](N)C(=O)O [L-Isoleucine]
activators of mTOR or inhibitors of autophagy, compared with other amino acids (mTOR kinases): more potent
Literature-based activity: mTOR kinases (mTOR kinases): activate
Literature-based activity: autophagy (autophagy): DOWN

CC(C)C[C@H](N)C(=O)O [L-Leucine]
activators of mTOR or inhibitors of autophagy, compared with other amino acids (mTOR kinases): more potent
Literature-based activity: mTOR kinases (mTOR kinases): activate
Literature-based activity: autophagy (autophagy): DOWN
inhibitory effects on autophagy (autophagy): most prominent

Acetyl-proline-glycine-proline [AcPGP]
concentration level at which the chemoattractant operates (neutrophil; ELR+ CXC chemokines are functional at nanomolar levels): micromolar level

RSVM (CXCR4 partial agonist) [peptide agonist of CXCR4]
agonist behaviour in chemotaxis (CXCR4): partial agonist
sensitivity to the CXCR4 antagonist AMD3100 (CXCR4): insensitive

Pro-Gly-Pro [PGP]
potency in evoking neutrophil chemotaxis, less than AcPGP (neutrophil; unacetylated versus acetylated peptide): 4-7 fold

LQGV (tetrapeptide) [tetrapeptide, sister compound of AQGV]
survival ([5]; 5 mg/kg bodyweight combined with fluid resuscitation and antibiotics, severe cecal ligation and puncture, 30% without peptide): 70%
survival ([5]; 5 mg/kg bodyweight, first 5 days after moderate cecal ligation and puncture, 20% without): 50%
pulmonary nuclear factor-κB activation and pulmonary damage ([5]; mouse, in vivo): reduced
cytokine and E-selectin levels ([5]; peritoneal lavage fluid, lungs, to a lesser extent plasma): reduced

Ala-Gln-[1-^14C]Gly-Val (AQGV; also: 14C label at C1 of Gly ([1-14C]Gly)) [[14C]-AQGV]
average total recovery of radioactivity ([6]; 10 minutes after dose administration): 83.2%
average total recovery of radioactivity ([6]; 30 minutes after dose administration): 70.5%
average total recovery of radioactivity ([6]; 60 minutes after dose administration): 62.9%
average total recovery of radioactivity ([6]; 6 hours after dose administration): 52.6%
average total recovery of radioactivity ([6]; 24 hours after dose administration): 50.8%
administered radioactivity excreted in feces ([6]; after 24 hours): 2.6%
administered radioactivity excreted in urine ([6]; after 24 hours): 10.2%
radioactivity in the blood, amount if all counts were in intact peptide ([6]; blood, 10 minutes after single i.v. dose of 50 mg/kg): 17.2 µg/g
concentration of "peptide" (radioactivity) ([6]; kidneys, after 10 minutes): 362 µg/g
concentration of "peptide" (radioactivity) ([6]; kidneys, after 24 hours): 61.9 µg/g
concentration of "peptide" (radioactivity) ([6]; liver, after 10 minutes): 105 µg/g
concentration of "peptide" (radioactivity) ([6]; liver, after 24 hours): 37.6 µg/g
concentration of "peptide" (radioactivity) ([6]; lung, after 10 minutes): 75.2 µg/g
time to full hydrolysis of the peptide after administration ([6]; mice): 15 min
parent compound in plasma (HPLC) ([6]; plasma, after 10 minutes, 50 mg/kg i.v.): No parent compound could be detected
concentration of "peptide" (radioactivity) ([6]; skin, after 24 hours): 37.5 µg/g
concentration of "peptide" (radioactivity) ([6]; spleen, after 10 minutes): 74.7 µg/g
concentration of "peptide" (radioactivity) ([6]; spleen, after 24 hours): 39.3 µg/g
concentration of "peptide" (radioactivity) ([6]; testis, after 10 minutes): 85.7 µg/g
concentration of "peptide" (radioactivity) ([6]; thymus, after 24 hours): 43.1 µg/g
administered radioactivity exhaled as volatiles, most likely 14C-CO2 ([6]; up to 24 hours): About 50%
parent compound in urine (HPLC) ([6]; urine, 50 mg/kg i.v.): No parent compound was detected

C[C@@H](O)[C@H](N)C(=O)O [L-Threonine]
activators of mTOR or inhibitors of autophagy, compared with other amino acids (mTOR kinases): no or opposite effects
Literature-based activity: mTOR kinases (mTOR kinases): down

CSCC[C@H](NC=O)C(=O)N[C@@H](CC(C)C)C(=O)N[C@@H](Cc1ccccc1)C(=O)O [fMLP, N-Formyl-L-methionyl-L-leucyl-L-phenylalanine, reference compound]
changes in phosphorylation status of p38 MAPK on FPR-activation (p38 MAPK; FPR-expressing cells, p<0.05 from 60 to 600 seconds): significant
changes in phosphorylation status of STAT3, JNK and P42/p44MAPK/ERK1,2 on FPR-activation ([4]; FPR-expressing cells): not (or not detectable)
changes in phosphorylation status of PKB (AKT) on FPR-activation (PKB (also known as AKT); FPR-expressing cells, p<0.05 at 600 seconds): significant

N[C@@H](CCC(=O)O)C(=O)O [glutamate, L-Glutamic Acid]
activators of mTOR or inhibitors of autophagy, compared with other amino acids (mTOR kinases): no or opposite effects

N[C@@H](Cc1ccccc1)C(=O)O [phenylalanine, L-Phenylalanine]
activators of mTOR or inhibitors of autophagy, compared with other amino acids (mTOR kinases): no or opposite effects

N[C@@H](CO)C(=O)O [serine, L-Serine]
activators of mTOR or inhibitors of autophagy, compared with other amino acids (mTOR kinases): no or opposite effects

O=C(O)[C@@H]1CCCN1 [L-Proline]
activators of mTOR or inhibitors of autophagy, compared with other amino acids (mTOR kinases): more potent
Literature-based activity: mTOR kinases (mTOR kinases): activate
inhibitory effects on autophagy (autophagy): most prominent

Source: patent US20240173375A1, “CHEMOTACTIC AUTOPHAGY-INHIBITING PEPTIDE, COMPOSITIONS AND METHODS RELATED THERETO” (Biotempt B.V., priority 2021, published 2024)
